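Values below derive from 48-hour exposures of cells grown in 96-well plates, with endpoints linearly interpolated between the two concentrations bracketing the appropriate inhibition level. Here, GI50 denotes the concentration required for 50% inhibition of growth.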 The source made the active and inactive calls. Rule as the data show it: active = GI50 up to about 1.1 µM and inactive = higher.
What was measured:
Test in all cases: NCI-60 cell line screen, 48 h
786-0 = system: 786-0
A549 = system: A549
BT-549 = system: BT-549
EKVX = system: EKVX
HOP-92 = system: HOP-92
Hs-578T = system: Hs-578T
K562 = system: K562
M19-MEL = system: M19-MEL
Malme-3M = system: Malme-3M
NCI-H23 = system: NCI-H23
OVCAR-5 = system: OVCAR-5
OVCAR-8 = system: OVCAR-8
PC-3 = system: PC-3
SF-268 = system: SF-268
SF-295 = system: SF-295
SK-OV-3 = system: SK-OV-3
SR = system: SR
T47D = system: T47D
U-251 = system: U-251
UACC-257 = system: UACC-257

Measured: GI50

Cc1cc(CS(=O)(=O)/C=C/c2ccccc2[N+](=O)[O-])c(CS(=O)(=O)/C=C/c2ccccc2[N+](=O)[O-])cc1C
inactive: 786-0 12.5 µM | A549 57.7 µM | BT-549 7.41 µM | EKVX 29.9 µM | HOP-92 33.2 µM | Hs-578T 3.44 µM | K562 35.3 µM | M19-MEL > 100 µM | Malme-3M 28 µM | NCI-H23 17.7 µM | OVCAR-5 > 57.1 µM | OVCAR-8 24.1 µM | PC-3 42.4 µM | SF-268 25.4 µM | SF-295 16.9 µM | SK-OV-3 24 µM | SR 13.7 µM | T47D > 100 µM | U-251 19.6 µM | UACC-257 > 65 µM

O=C1C2CCN(CC2)C1CN1CCOCC1 (stereo not given)
inactive: 786-0 1.93 µM | A549 19.7 µM | BT-549 2.28 µM | EKVX 17.8 µM | HOP-92 1.9 µM | Hs-578T 29 µM | K562 6.73 µM | M19-MEL 13.4 µM | Malme-3M 1.8 µM | NCI-H23 9.95 µM | OVCAR-5 5.53 µM | OVCAR-8 5.02 µM | PC-3 20 µM | SF-268 13.7 µM | SF-295 19.4 µM | SK-OV-3 17.2 µM | SR 6.1 µM | T47D 1.92 µM | U-251 11 µM | UACC-257 4.33 µM

COC(=O)c1ccccc1NCc1cc(O)ccc1O
inactive: 786-0 17.7 µM | A549 32.7 µM | BT-549 2.71 µM | EKVX 22 µM | HOP-92 17.7 µM | Hs-578T 19.7 µM | K562 19.6 µM | M19-MEL 17.5 µM | Malme-3M 21.4 µM | NCI-H23 32.9 µM | OVCAR-5 29.4 µM | OVCAR-8 18.1 µM | PC-3 17 µM | SF-268 27.9 µM | SF-295 17.9 µM | SK-OV-3 > 100 µM | SR > 10 µM | T47D 15.9 µM | U-251 20.1 µM | UACC-257 15.6 µM
